{"source": "paper PMC9288506", "about": "“Compounds activating VCP D1 ATPase enhance both autophagic and proteasomal neurotoxic protein clearance” (Nature Communications, 2022)", "assay_in_all_cases": "biochemical", "design_in_all_cases": "Thermo Fisher in vitro kinase panel, per cent inhibition of kinase activity at 10 uM", "key": {"BLK": {"target": "BLK (Homo sapiens, UniProt P51451)", "method": "(§1) Kinase profiling of SMER28 and analogs SMER28 and analogs were tested at 10 µM in a panel of 123 kinases at ThermoFisher Scientific. Follow-up of selected kinases for SMER28 and analogs was also performed at ThermoFisher Scientific. Data are shown in Supplementary Data 2 and 3. […] An inhibition of PIK3C could induce autophagy, mediated by signaling through the AKT/mTOR axis[45]."}, "BTK": {"target": "BTK (Homo sapiens, UniProt Q06187)", "method": "as §1"}, "DMPK": {"target": "DMPK (Homo sapiens, UniProt Q09013)", "sequence (Q09013 whole entry)": "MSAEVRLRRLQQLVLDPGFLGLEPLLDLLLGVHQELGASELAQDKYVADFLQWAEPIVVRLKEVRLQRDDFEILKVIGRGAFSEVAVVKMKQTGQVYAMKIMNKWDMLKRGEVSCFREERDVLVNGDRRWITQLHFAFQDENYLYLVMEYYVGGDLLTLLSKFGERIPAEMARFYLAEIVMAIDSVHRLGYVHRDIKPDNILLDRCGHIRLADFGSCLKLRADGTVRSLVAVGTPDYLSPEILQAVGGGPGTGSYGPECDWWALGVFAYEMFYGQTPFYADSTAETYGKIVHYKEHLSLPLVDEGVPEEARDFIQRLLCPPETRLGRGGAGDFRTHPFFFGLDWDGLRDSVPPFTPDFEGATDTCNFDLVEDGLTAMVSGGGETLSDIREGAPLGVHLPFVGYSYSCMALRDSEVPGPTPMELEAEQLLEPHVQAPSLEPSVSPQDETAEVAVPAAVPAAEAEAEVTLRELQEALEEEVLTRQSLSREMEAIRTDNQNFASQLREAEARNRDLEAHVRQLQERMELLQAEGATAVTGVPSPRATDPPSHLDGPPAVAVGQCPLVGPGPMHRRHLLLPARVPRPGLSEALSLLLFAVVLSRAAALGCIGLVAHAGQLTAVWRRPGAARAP", "method": "as §1"}, "DYRK2": {"target": "DYRK2 (Homo sapiens, UniProt Q92630)", "sequence (Q92630 whole entry)": "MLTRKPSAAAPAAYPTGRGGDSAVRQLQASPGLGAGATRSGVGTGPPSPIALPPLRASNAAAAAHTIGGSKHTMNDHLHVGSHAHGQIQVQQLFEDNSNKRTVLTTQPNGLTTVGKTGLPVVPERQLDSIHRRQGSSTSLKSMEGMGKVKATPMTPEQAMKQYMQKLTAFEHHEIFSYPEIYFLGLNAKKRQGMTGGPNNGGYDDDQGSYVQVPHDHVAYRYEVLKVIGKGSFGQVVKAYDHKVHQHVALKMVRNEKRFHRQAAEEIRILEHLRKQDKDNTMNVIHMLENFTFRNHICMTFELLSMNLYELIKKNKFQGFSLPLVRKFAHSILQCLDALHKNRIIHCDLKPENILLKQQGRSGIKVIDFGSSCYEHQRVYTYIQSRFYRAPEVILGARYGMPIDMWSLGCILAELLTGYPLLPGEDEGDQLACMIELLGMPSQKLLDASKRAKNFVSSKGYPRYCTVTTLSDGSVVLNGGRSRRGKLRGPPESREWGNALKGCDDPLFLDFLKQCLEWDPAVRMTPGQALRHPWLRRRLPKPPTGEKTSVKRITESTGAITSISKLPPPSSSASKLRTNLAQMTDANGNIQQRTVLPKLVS", "method": "as §1"}, "EEF2K": {"target": "EEF2K (Homo sapiens, UniProt O00418)", "method": "as §1"}, "EGFR (ErbB1) T790M L858R": {"target": "EGFR (ErbB1) T790M L858R (Homo sapiens, UniProt P00533, L858R/T790M)", "method": "as §1"}, "FGFR3": {"target": "FGFR3 (Homo sapiens, UniProt P22607)", "method": "as §1"}, "FLT1 (VEGFR1)": {"target": "FLT1 (VEGFR1) (Homo sapiens, UniProt P17948)", "method": "as §1"}, "FLT3": {"target": "FLT3 (Homo sapiens, UniProt P36888)", "method": "as §1"}, "IRAK4": {"target": "IRAK4 (Homo sapiens, UniProt Q9NWZ3)", "sequence (Q9NWZ3 whole entry)": "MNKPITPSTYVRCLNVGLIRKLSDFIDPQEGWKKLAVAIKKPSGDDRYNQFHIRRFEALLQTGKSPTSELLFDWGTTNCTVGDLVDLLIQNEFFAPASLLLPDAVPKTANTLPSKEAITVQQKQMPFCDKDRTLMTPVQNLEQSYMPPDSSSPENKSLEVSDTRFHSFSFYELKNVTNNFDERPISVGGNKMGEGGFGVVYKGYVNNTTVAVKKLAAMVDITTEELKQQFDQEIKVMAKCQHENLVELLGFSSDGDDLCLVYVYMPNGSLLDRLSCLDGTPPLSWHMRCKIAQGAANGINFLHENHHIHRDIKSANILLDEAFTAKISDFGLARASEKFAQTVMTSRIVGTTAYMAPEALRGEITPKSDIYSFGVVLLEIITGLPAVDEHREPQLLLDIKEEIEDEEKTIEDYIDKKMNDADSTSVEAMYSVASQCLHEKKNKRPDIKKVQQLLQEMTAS", "method": "as §1"}, "LCK": {"target": "LCK (Homo sapiens, UniProt P06239)", "method": "as §1"}, "LYN A": {"target": "T1, LYN A (Homo sapiens, UniProt P07948)", "T1 construct": "isoform A", "method": "as §1"}, "MINK1": {"target": "MINK1 (Homo sapiens, UniProt Q8N4C8)", "method": "as §1"}, "NTRK1 (TRKA)": {"target": "NTRK1 (TRKA) (Homo sapiens, UniProt P04629)", "sequence (P04629 whole entry)": "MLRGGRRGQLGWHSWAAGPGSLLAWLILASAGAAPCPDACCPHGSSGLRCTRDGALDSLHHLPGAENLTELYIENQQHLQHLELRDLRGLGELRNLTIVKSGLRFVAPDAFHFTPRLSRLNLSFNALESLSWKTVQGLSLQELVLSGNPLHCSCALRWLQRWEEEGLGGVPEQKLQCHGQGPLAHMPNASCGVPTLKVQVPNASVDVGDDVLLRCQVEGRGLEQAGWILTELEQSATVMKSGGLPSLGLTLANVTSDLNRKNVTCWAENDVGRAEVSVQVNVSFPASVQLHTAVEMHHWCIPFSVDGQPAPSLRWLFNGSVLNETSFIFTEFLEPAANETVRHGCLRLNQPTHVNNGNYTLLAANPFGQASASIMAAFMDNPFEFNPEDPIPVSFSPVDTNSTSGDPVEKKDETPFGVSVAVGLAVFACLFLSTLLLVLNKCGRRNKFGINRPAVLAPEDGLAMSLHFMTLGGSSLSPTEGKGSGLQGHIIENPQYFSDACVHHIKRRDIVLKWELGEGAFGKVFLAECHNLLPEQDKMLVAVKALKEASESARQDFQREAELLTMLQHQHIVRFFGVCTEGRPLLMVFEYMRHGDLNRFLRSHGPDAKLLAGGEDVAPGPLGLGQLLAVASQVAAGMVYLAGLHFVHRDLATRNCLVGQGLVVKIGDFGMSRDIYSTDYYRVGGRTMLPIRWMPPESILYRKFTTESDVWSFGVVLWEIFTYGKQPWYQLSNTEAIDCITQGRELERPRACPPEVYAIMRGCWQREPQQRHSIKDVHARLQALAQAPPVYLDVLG", "method": "as §1"}, "PAK2 (PAK65)": {"target": "PAK2 (PAK65) (Homo sapiens, UniProt Q13177)", "method": "as §1"}, "PAK4": {"target": "PAK4 (Homo sapiens, UniProt O96013)", "method": "as §1"}, "PDK1": {"target": "T2, PDK1 (Homo sapiens, UniProt O15530)", "T2 construct": "gene PDPK1", "method": "as §1"}, "PIK3C2A (PI3K-C2 alpha)": {"target": "PIK3C2A (PI3K-C2 alpha) (Homo sapiens, UniProt O00443)", "sequence (O00443 whole entry)": "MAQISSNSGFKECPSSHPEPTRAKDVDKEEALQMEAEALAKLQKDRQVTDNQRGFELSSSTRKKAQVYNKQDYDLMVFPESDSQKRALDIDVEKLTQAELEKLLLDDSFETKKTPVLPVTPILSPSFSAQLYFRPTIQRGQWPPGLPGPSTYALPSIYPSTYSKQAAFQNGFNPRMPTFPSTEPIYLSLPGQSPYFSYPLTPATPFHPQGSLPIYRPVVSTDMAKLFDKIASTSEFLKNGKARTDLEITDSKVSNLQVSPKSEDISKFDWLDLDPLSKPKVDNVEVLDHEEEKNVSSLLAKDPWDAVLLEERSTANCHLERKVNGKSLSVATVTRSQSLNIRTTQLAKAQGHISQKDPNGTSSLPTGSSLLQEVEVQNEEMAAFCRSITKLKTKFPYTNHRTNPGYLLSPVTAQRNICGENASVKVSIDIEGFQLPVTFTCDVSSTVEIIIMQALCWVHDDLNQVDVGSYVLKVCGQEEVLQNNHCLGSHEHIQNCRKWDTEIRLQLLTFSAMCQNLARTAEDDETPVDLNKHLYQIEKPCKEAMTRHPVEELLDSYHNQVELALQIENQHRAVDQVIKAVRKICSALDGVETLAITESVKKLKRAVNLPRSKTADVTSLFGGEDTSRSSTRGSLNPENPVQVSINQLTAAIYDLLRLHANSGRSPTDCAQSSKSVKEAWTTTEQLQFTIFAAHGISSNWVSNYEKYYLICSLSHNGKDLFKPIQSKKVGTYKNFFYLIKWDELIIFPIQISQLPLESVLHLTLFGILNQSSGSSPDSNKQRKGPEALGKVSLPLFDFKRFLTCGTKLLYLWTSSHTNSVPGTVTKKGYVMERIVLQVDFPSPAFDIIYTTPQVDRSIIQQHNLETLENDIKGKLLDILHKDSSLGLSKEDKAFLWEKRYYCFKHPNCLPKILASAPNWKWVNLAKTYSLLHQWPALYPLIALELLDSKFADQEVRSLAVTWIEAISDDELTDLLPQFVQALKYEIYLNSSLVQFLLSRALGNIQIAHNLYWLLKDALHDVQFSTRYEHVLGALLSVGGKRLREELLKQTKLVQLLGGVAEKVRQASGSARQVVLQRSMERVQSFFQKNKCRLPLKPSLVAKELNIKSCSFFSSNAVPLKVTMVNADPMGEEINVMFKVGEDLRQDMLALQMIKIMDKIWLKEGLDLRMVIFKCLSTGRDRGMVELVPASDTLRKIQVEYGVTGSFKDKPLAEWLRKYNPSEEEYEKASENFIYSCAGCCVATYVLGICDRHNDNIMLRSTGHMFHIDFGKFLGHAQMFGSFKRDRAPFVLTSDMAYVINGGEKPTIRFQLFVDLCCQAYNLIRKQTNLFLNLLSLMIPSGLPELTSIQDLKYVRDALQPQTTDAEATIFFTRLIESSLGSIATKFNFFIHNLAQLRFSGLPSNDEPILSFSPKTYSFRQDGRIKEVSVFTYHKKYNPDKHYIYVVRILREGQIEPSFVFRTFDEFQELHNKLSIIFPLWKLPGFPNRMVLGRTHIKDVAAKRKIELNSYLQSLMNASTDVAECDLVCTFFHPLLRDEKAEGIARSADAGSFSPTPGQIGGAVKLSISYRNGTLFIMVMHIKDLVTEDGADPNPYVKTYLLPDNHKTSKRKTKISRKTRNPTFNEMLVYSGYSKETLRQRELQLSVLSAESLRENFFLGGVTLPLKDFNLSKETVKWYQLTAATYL", "method": "as §1"}, "[1]": {"target": "PIK3CA/PIK3R1 (p110 alpha/p85 alpha) (Homo sapiens, UniProt P42336)", "method": "as §1"}, "PRKCA (PKC alpha)": {"target": "PRKCA (PKC alpha) (Homo sapiens, UniProt P17252)", "method": "as §1"}, "PRKCQ (PKC theta)": {"target": "PRKCQ (PKC theta) (Homo sapiens, UniProt Q04759)", "sequence (Q04759 whole entry)": "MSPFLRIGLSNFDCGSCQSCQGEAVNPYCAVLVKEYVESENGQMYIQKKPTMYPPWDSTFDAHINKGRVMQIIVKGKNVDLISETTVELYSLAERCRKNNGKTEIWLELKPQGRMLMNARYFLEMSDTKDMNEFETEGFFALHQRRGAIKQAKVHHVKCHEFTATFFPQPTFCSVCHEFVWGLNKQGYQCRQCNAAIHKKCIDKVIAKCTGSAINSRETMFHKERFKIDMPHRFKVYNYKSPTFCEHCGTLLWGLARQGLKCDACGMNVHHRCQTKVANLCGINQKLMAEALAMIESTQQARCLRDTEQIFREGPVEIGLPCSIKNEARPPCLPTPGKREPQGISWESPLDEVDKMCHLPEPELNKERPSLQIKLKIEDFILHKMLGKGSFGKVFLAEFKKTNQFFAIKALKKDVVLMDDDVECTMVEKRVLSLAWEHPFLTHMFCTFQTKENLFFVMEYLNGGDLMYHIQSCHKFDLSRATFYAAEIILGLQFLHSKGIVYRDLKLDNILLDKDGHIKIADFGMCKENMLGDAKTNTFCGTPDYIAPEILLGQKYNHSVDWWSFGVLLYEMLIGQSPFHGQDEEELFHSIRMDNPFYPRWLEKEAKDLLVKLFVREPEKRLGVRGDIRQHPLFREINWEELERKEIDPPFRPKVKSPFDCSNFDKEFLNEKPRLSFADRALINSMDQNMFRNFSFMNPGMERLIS", "method": "as §1"}, "RET V804L": {"target": "RET V804L (Homo sapiens, UniProt P07949, V804L)", "method": "as §1"}, "RET V804M": {"target": "RET V804M (Homo sapiens, UniProt P07949, V804M)", "method": "as §1"}, "SYK": {"target": "SYK (Homo sapiens, UniProt P43405)", "method": "as §1"}, "TBK1": {"target": "TBK1 (Homo sapiens, UniProt Q9UHD2)", "method": "as §1"}}}
{"molecule": "C=CCNc1ncnc2ccc(Br)cc12", "note": "[SMER28]", "values": [{"measurement": "inhibition at 10 µM", "setting": "BLK", "value": 4, "unit": "%"}, {"measurement": "inhibition at 10 µM", "setting": "BTK", "value": 8, "unit": "%"}, {"measurement": "inhibition at 10 µM", "setting": "DMPK", "value": 57, "unit": "%"}, {"measurement": "inhibition at 10 µM", "setting": "DYRK2", "value": 67, "unit": "%"}, {"measurement": "inhibition at 10 µM", "setting": "EEF2K", "value": 2, "unit": "%"}, {"measurement": "inhibition at 10 µM", "setting": "EGFR (ErbB1) T790M L858R", "value": 15, "unit": "%"}, {"measurement": "inhibition at 10 µM", "setting": "FGFR3", "value": -7, "unit": "%"}, {"measurement": "inhibition at 10 µM", "setting": "FLT1 (VEGFR1)", "value": 9, "unit": "%"}, {"measurement": "inhibition at 10 µM", "setting": "FLT3", "value": 40, "unit": "%"}, {"measurement": "inhibition at 10 µM", "setting": "IRAK4", "value": 68, "unit": "%"}, {"measurement": "inhibition at 10 µM", "setting": "LCK", "value": 19, "unit": "%"}, {"measurement": "inhibition at 10 µM", "setting": "LYN A", "value": 20, "unit": "%"}, {"measurement": "inhibition at 10 µM", "setting": "MINK1", "value": 45, "unit": "%"}, {"measurement": "inhibition at 10 µM", "setting": "NTRK1 (TRKA)", "value": 33, "unit": "%"}, {"measurement": "inhibition at 10 µM", "setting": "PAK2 (PAK65)", "value": 9, "unit": "%"}, {"measurement": "inhibition at 10 µM", "setting": "PAK4", "value": 0, "unit": "%"}, {"measurement": "inhibition at 10 µM", "setting": "PDK1", "value": -7, "unit": "%"}, {"measurement": "inhibition at 10 µM", "setting": "PIK3C2A (PI3K-C2 alpha)", "value": 22, "unit": "%"}, {"measurement": "inhibition at 10 µM", "setting": "[1]", "value": 78, "unit": "%"}, {"measurement": "inhibition at 10 µM", "setting": "PRKCA (PKC alpha)", "value": 10, "unit": "%"}, {"measurement": "inhibition at 10 µM", "setting": "PRKCQ (PKC theta)", "value": 0, "unit": "%"}, {"measurement": "inhibition at 10 µM", "setting": "RET V804L", "value": 30, "unit": "%"}, {"measurement": "inhibition at 10 µM", "setting": "RET V804M", "value": 38, "unit": "%"}, {"measurement": "inhibition at 10 µM", "setting": "SYK", "value": 8, "unit": "%"}, {"measurement": "inhibition at 10 µM", "setting": "TBK1", "value": 4, "unit": "%"}]}
